Laboratory results as given in ChEMBL document CHEMBL1122718, “Benzylamines: synthesis and evaluation of antimycobacterial properties” (1984).

Key:
Format in all cases: functional
[1] = tested on: Mycobacterium tuberculosis; assay: Minimum inhibitory concentration (MIC) against Mycobacterium tuberculosis H 37 Ra
[2] = tested on: Mycobacterium tuberculosis; assay: Compound was evaluated for the minimum inhibitory concentration (MIC) against Mycobacterium tuberculosis H 37 Rv
[3] = tested on: Mycolicibacterium smegmatis; assay: Minimum inhibitory concentration (MIC) of compound against Mycobacterium smegmatis ATCC 607
[4] = tested on: Mycobacterium marinum; assay: Minimum inhibitory concentration (MIC) of compound against Mycobacterium marinum SN 1254
[5] = tested on: Mycobacterium avium; assay: Minimum inhibitory concentration (MIC) of compound against Mycobacterium avium SN 304
[6] = tested on: Mycobacterium tuberculosis; assay: Minimum inhibitory concentration (MIC) of compound against Mycobacterium tuberculosis H 37 Rv
[7] = tested on: Mycobacterium lufu; assay: Minimum inhibitory concentration (MIC) of compound against Mycobacterium lufu L 209

| Structure (SMILES) | MIC [1] [µg/mL] | other results |
| --- | --- | --- |
| CCCCNCc1cccc(Cl)c1.Cl | 64 |  |
| CNCc1ccc(Cl)c(C(F)(F)F)c1.Cl | > 256 |  |
| Cl.NCc1ccc(Cl)c(C(F)(F)F)c1 | > 256 |  |
| CCCNCc1cccc(Br)c1.Cl | 51.2 |  |
| CCCCNCc1ccc(Cl)c(Cl)c1.Cl | > 256 |  |
| CCCCNCc1ccccc1Cl.Cl | > 256 |  |
| CCCNCc1ccc(Cl)c(Cl)c1.Cl | > 256 |  |
| CCNCc1ccc(Cl)c(Cl)c1.Cl | > 256 |  |
| CNCc1cccc(I)c1.Cl | 154 |  |
| CNCc1cc(F)cc(Cl)c1.Cl | 19.2 |  |
| CCCNCc1ccc(Cl)cc1Cl.Cl | > 256 |  |
| CC(C)NCc1cccc(Cl)c1.Cl | > 256 |  |
| CNCc1ccc(Cl)c(Cl)c1.Cl | > 256 |  |
| CNCc1cccc(F)c1.Cl | 19.2 |  |
| Cl.NCc1cccc(C(F)(F)F)c1 | > 256 |  |
| CCCNCc1cc(Cl)cc([N+](=O)[O-])c1.Cl | 102 |  |
| Cl.NCc1cc(F)cc(Cl)c1 | 32 |  |
| CCNCc1ccc(OC)cc1.Cl | > 256 |  |
| CNCc1ccc(OC)cc1.Cl | > 256 |  |
| CC(C)NCc1cccc(C(F)(F)F)c1.Cl | > 256 |  |
| CCNCc1ccc(Cl)cc1Cl.Cl | > 256 |  |
| CCNCc1cccc(F)c1.Cl | 51.2 |  |
| CCNCc1cc(Cl)ccc1Cl.Cl | > 256 |  |
| CCCNCc1cccc([N+](=O)[O-])c1.Cl | > 256 |  |

| Structure (SMILES) | MIC [1] [µg/mL] | other results |
| --- | --- | --- |
| CNCc1cc(Cl)ccc1Cl.Cl | > 256 |  |
| CNCc1cc(F)cc(F)c1.Cl | 32 |  |
| CCNCc1ccc(Cl)c(C(F)(F)F)c1.Cl | > 256 |  |
| CCCCNCc1cccc(C(F)(F)F)c1.Cl | > 256 |  |
| CCCCNCc1cc(Cl)ccc1Cl.Cl | > 256 |  |
| CCCCNCc1c(Cl)cccc1Cl.Cl | > 256 |  |
| CCNCc1cccc([N+](=O)[O-])c1.Cl | > 256 |  |
| Cl.NCc1cccc(Br)c1 | 32 |  |
| CC(C)NCc1cccc(F)c1.Cl | > 256 |  |
| Cl.NCc1cccc(I)c1 | 179 |  |
| CCCCCNCc1cccc(Cl)c1.Cl | 51.2 |  |
| CCCCCCNCc1ccccc1.Cl | > 256 |  |
| CCCCNCc1ccccc1.Cl | 51.2 |  |
| CCNCc1cccc(C(F)(F)F)c1.Cl | > 256 |  |
| CNCc1cccc(C(F)(F)F)c1.Cl | > 256 |  |
| CCNCc1ccccc1Br.Cl | > 256 |  |
| CCCNCc1ccc(C(F)(F)F)cc1.Cl | > 256 |  |
| CCCCCNCc1cc(Cl)cc(Cl)c1.Cl | 128 |  |
| CCCNCc1ccc(Cl)c(C(F)(F)F)c1.Cl | > 256 |  |
| CCCNCc1cccc(F)c1.Cl | 25.6 |  |
| CNCc1ccc(C(F)(F)F)cc1.Cl | > 256 |  |
| CCCNCc1ccc(OC)cc1.Cl | > 256 |  |
| Cl.NCc1cc(F)cc(F)c1 | 57.6 |  |
| CNCc1ccc(Cl)cc1Cl.Cl | > 256 |  |

| Structure (SMILES) | MIC [1] [µg/mL] | other results |
| --- | --- | --- |
| Cl.NCc1ccc(Cl)cc1Cl | > 256 |  |
| Cl.NCc1cc(Cl)ccc1Cl | 76.8 |  |
| CCCCNCc1cccc(Br)c1.Cl | 38.4 |  |
| CCCCCCCNCc1ccccc1.Cl | > 256 |  |
| CCNCc1cc(Cl)cc(Cl)c1.Cl | 17.9 |  |
| CCCCNCc1ccccc1Br.Cl | > 256 |  |
| Cl.N#Cc1cccc(CN)c1 | 128 |  |
| CCCCNCc1cc(F)cc(Cl)c1.Cl | 19.2 |  |
| CCCCNCc1cccc(I)c1.Cl | 205 |  |
| CC(C)NCc1cccc(C#N)c1.Cl | > 256 |  |
| CNCc1ccc(Cl)cc1.Cl | > 256 |  |
| CCCCCNCc1cccc(C#N)c1.Cl | 76.8 |  |
| CNCc1ccccc1.Cl | 102 |  |
| CCCNCc1cc(Cl)cc(Cl)c1.Cl | 20.4 |  |
| CCCCCNCc1cccc([N+](=O)[O-])c1.Cl | > 256 |  |
| Cl.NCc1ccc(C(F)(F)F)cc1 | > 256 |  |
| CCCNCc1cccc(C(F)(F)F)c1.Cl | > 256 |  |
| Cl.NCc1cccc([N+](=O)[O-])c1 | 179 |  |
| CNCc1cccc(C#N)c1.Cl | 51.2 |  |
| CCNCc1c(Cl)cccc1Cl.Cl | > 256 |  |
| CCCCNCc1cccc(F)c1.Cl | 25.6 | MIC [2]: 30 µg/mL |
| CC(C)NCc1cccc([N+](=O)[O-])c1.Cl | > 256 |  |
| CNCc1c(Cl)cccc1Cl.Cl | > 256 |  |
| CCCCNCc1ccc(Br)cc1.Cl | > 256 |  |

| Structure (SMILES) | MIC [1] [µg/mL] | other results |
| --- | --- | --- |
| CCCNCc1cccc(C#N)c1.Cl | 76.8 |  |
| CCCCNCc1cc(Cl)cc([N+](=O)[O-])c1.Cl | 205 |  |
| CCNCc1cccc(I)c1.Cl | > 256 |  |
| CCNCc1ccccc1.Cl | 205 |  |
| CCCNCc1cc(F)cc(Cl)c1.Cl | 25.6 |  |
| Cl.NCc1ccccc1 | 76.8 |  |
| CNCc1ccccc1Cl.Cl | > 256 |  |
| CCCNCc1cccc(I)c1.Cl | 256 |  |
| CCCCNCc1ccc(Cl)cc1.Cl | > 256 |  |
| CNCc1ccc(Br)cc1.Cl | > 256 |  |
| CCCCNCc1ccc(C(F)(F)F)cc1.Cl | > 256 |  |
| CCCCNCc1cccc([N+](=O)[O-])c1.Cl | > 256 |  |
| CCCNCc1ccccc1.Cl | 51.2 |  |
| CCCCCNCc1cccc(F)c1.Cl | 51.2 |  |
| COc1ccc(CN)cc1.Cl | > 256 |  |
| CCCNCc1c(Cl)cccc1Cl.Cl | > 256 |  |
| CCNCc1cccc(C#N)c1.Cl | 102 |  |
| Cl.NCc1c(Cl)cccc1Cl | > 256 |  |
| CCCCCNCc1ccccc1.Cl | 154 |  |
| CNCc1cc(Cl)cc([N+](=O)[O-])c1.Cl | 128 |  |
| CCCCNCc1ccc(Cl)c(C(F)(F)F)c1.Cl | > 256 |  |
| Cl.NCc1ccc(Cl)c(Cl)c1 | > 256 |  |
| Cl.NCc1cc(Cl)cc(Cl)c1 | 20.4 |  |
| CCCNCc1cc(Cl)ccc1Cl.Cl | > 256 |  |

| Structure (SMILES) | MIC [1] [µg/mL] | other results |
| --- | --- | --- |
| CCNCc1cc(Cl)cc([N+](=O)[O-])c1.Cl | 102 |  |
| CCCNCc1cc(F)cc(F)c1.Cl | 19.2 |  |
| CCCCNCc1cccc(C#N)c1.Cl | 51.2 |  |
| Cl.NCc1cccc(F)c1 | 51.2 |  |
| CCCCNCc1cc(F)cc(F)c1.Cl | 6.4 | MIC [3]: 32 µg/mL; MIC [4]: 6 µg/mL; MIC [5]: 3 µg/mL; MIC [6]: 4 µg/mL; MIC [7]: 8 µg/mL |
| CCNCc1ccc(C(F)(F)F)cc1.Cl | > 256 |  |
| CCCCCNCc1cc(F)cc(F)c1.Cl | 32 |  |
| CNCc1cccc(Br)c1.Cl | 19.2 |  |
| CCNCc1cc(F)cc(Cl)c1.Cl | 32 |  |
| CCNCc1cc(F)cc(F)c1.Cl | 44.8 |  |
| CCCNCc1cccc(Cl)c1.Cl | 17.9 |  |
| CCCCCCCNCc1cc(Cl)cc(Cl)c1.Cl | 154 |  |
| CCNCc1cccc(Br)c1.Cl | 64 |  |
| CCCCCNCc1cccc(C(F)(F)F)c1.Cl | > 256 |  |
| CNCc1cccc([N+](=O)[O-])c1.Cl | 256 |  |
| Cl.NCc1cccc(Cl)c1 | 17.9 |  |
| CCCCNCc1cc(Cl)cc(Cl)c1.Cl | 64 |  |
| CCCCNCc1ccc(Cl)cc1Cl.Cl | > 256 |  |
| CCNCc1cccc(Cl)c1.Cl | 25.6 |  |
| CCCCCCCCNCc1ccccc1.Cl [BENZYL(OCTYL)AMINE HYDROCHLORIDE] | > 256 |  |
